From the supplement of paper PMC10627819

Key:
S. aureus DSM 20231 [1] = assay: fitness (endpoint OD595 vs no drug) (fraction); higher = more growth
Method in brief: (§1)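 Cultures at OD595 0.01 were dispensed into 384-well plates in TSB, LB Lennox or CY and incubated at 37 °C. Every 30 min for 14 h, OD595 was read and corrected by the first reading. Fitness is the optical density at entry into stationary phase relative to the robust mean of no-drug control wells, capped at 1.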

S. aureus Newman [2] = assay: as above
Method in brief: as §1

S. pneumoniae D39V [3] = assay: as above
Method in brief: as §1

B. subtilis 168 = assay: Bliss interaction score (quartile over a dose matrix) (fitness difference); higher = more antagonism (negative = synergy)
Method in brief: (§2)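 Combination data were used to infer fitness under each single drug. Fitness is the OD595 at entry into stationary phase divided by the robust mean of the plate's no-drug wells, with a cap of 1. The Bliss score is the observed minus the expected product fitness, summarised by quartiles over technical, biological and donor/recipient replicates.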

S. aureus DSM 20231 [4] = assay: as above
Method in brief: as §2

S. aureus Newman [5] = assay: as above
Method in brief: as §2

S. pneumoniae D39V [6] = assay: as above
Method in brief: as §2
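Wherever Bliss interaction score (quartile over a dose matrix) is given: first quartile when negative (synergy) and third quartile when positive (antagonism).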

C[n+]1ccc(-c2cc[n+](C)cc2)cc1 [Paraquat] + CN[C@H](CC(C)C)C(=O)N[C@H]1C(=O)N[C@@H](CC(N)=O)C(=O)N[C@H]2C(=O)N[C@H]3C(=O)N[C@H](C(=O)N[C@H](C(=O)O)c4cc(O)cc(O)c4-c4cc3ccc4O)[C@H](O)c3ccc(c(Cl)c3)Oc3cc2cc(c3O[C@@H]2O[C@H](CO)[C@@H](O)[C@H](O)[C@H]2O[C@H]2C[C@](C)(N)[C@H](O)[C@H](C)O2)Oc2ccc(cc2Cl)[C@H]1O [Vancomycin]
Conditions | fitness
S. aureus DSM 20231 [1], first compound 1.25 µg/mL, partner 0.1875 µg/mL | 0.908
S. aureus DSM 20231 [1], first compound 1.25 µg/mL, partner 0.375 µg/mL | 0.956
S. aureus DSM 20231 [1], first compound 1.25 µg/mL, partner 0.75 µg/mL | 0.963
S. aureus DSM 20231 [1], first compound 2.5 µg/mL, partner 0.1875 µg/mL | 0.87
S. aureus DSM 20231 [1], first compound 2.5 µg/mL, partner 0.375 µg/mL | 0.986
S. aureus DSM 20231 [1], first compound 2.5 µg/mL, partner 0.75 µg/mL | 0.969
S. aureus DSM 20231 [1], first compound 5 µg/mL, partner 0.1875 µg/mL | 0.861
S. aureus DSM 20231 [1], first compound 5 µg/mL, partner 0.375 µg/mL | ≥ 1
S. aureus DSM 20231 [1], first compound 5 µg/mL, partner 0.75 µg/mL | 0.964
S. aureus Newman [2], first compound 1.25 µg/mL, partner 0.1875 µg/mL | 0.933
S. aureus Newman [2], first compound 1.25 µg/mL, partner 0.375 µg/mL | 0.898
S. aureus Newman [2], first compound 2.5 µg/mL, partner 0.1875 µg/mL | 0.911
S. aureus Newman [2], first compound 2.5 µg/mL, partner 0.375 µg/mL | 0.898
S. aureus Newman [2], first compound 5 µg/mL, partner 0.1875 µg/mL | 0.933
S. aureus Newman [2], first compound 5 µg/mL, partner 0.375 µg/mL | 0.917
S. aureus Newman [2], first compound 5 µg/mL, partner 0.75 µg/mL | 0.935
S. pneumoniae D39V [3], first compound 1.5 µg/mL, partner 0.03125 µg/mL | 0.998
S. pneumoniae D39V [3], first compound 1.5 µg/mL, partner 0.0625 µg/mL | 0.984
S. pneumoniae D39V [3], first compound 1.5 µg/mL, partner 0.125 µg/mL | 0.855
S. pneumoniae D39V [3], first compound 3 µg/mL, partner 0.03125 µg/mL | 1
S. pneumoniae D39V [3], first compound 3 µg/mL, partner 0.0625 µg/mL | 0.994
S. pneumoniae D39V [3], first compound 3 µg/mL, partner 0.125 µg/mL | 0.851
S. pneumoniae D39V [3], first compound 6 µg/mL, partner 0.03125 µg/mL | ≥ 1
S. pneumoniae D39V [3], first compound 6 µg/mL, partner 0.0625 µg/mL | 0.974
S. pneumoniae D39V [3], first compound 6 µg/mL, partner 0.125 µg/mL | 0.891

fitness, S. pneumoniae D39V [3], one replicate
Conditions | first compound 1.5 µg/mL | first compound 3 µg/mL | first compound 6 µg/mL
partner 0.25 µg/mL | 0.18 | 0.249 | 0.372
partner 0.5 µg/mL | 0.0697 | 0.0334 | 0.129

Conditions | Bliss interaction score
B. subtilis 168 | 0.0779
S. aureus DSM 20231 [4] | 0.0505
S. aureus Newman [5] | 0.0613
S. pneumoniae D39V [6] | 0.101

Cc1onc(-c2ccccc2)c1C(=O)N[C@@H]1C(=O)N2[C@@H]1SC(C)(C)[C@@H]2C(=O)O [Oxacillin] + CCCCCCCCCC(=O)N[C@@H]1[C@H]([C@@H]([C@H](O[C@H]1OC2=C3C=C4C=C2OC5=C(C=C(C=C5)[C@H]([C@H]6C(=O)N[C@@H](C7=C(C(=CC(=C7)O)OC8[C@H]([C@H]([C@@H]([C@H](O8)CO)O)O)O)C9=C(C=CC(=C9)[C@H](C(=O)N6)NC(=O)[C@@H]4NC(=O)[C@@H]1C2=CC(=CC(=C2)OC2=C(C=CC(=C2)[C@H](C(=O)N[C@H](CC2=CC(=C(O3)C=C2)Cl)C(=O)N1)N)O)O)O)C(=O)O)O[C@H]1[C@@H]([C@H]([C@@H]([C@H](O1)CO)O)O)NC(=O)C)Cl)CO)O)O [Teicoplanin]
fitness, main component drawn
Conditions | first compound 0.0156 µg/mL | first compound 0.0312 µg/mL | first compound 0.0625 µg/mL
S. aureus DSM 20231 [1], partner 0.1562 µg/mL | 0.833 | 0.743 | 0.492
S. aureus DSM 20231 [1], partner 0.3125 µg/mL | 0.877 | 0.811 | 0.485
S. aureus DSM 20231 [1], partner 0.625 µg/mL | 0.813 | 0.693 | 0.541
S. aureus Newman [2], partner 0.1562 µg/mL | 0.746 | 0.702 | 0.595
S. aureus Newman [2], partner 0.3125 µg/mL | 0.732 | 0.708 | 0.596
S. aureus Newman [2], partner 0.625 µg/mL | 0.721 | 0.65 | –

fitness, S. aureus Newman [2], one replicate, main component drawn
Conditions | first compound 0.0156 µg/mL | first compound 0.0312 µg/mL | first compound 0.0625 µg/mL
partner 0.62 µg/mL | 0.603 | 0.638 | 0.534
partner 1.24 µg/mL | 0.668 | 0.596 | 0.351
partner 2.48 µg/mL | 0.429 | 0.16 | 0.143

main component drawn
Conditions | Bliss interaction score
B. subtilis 168 | -0.0735
S. aureus DSM 20231 [4] | 0.062
S. aureus Newman [5] | -0.0741
S. pneumoniae D39V [6] | -0.0582

CC[C@H]1OC(=O)[C@H](C)[C@@H](O[C@H]2C[C@@](C)(OC)[C@@H](O)[C@H](C)O2)[C@H](C)[C@@H](O[C@@H]2O[C@H](C)C[C@H](N(C)C)[C@H]2O)[C@](C)(O)C[C@@H](C)CN(C)[C@H](C)[C@@H](O)[C@]1(C)O [Azithromycin] + Cn1nnc(-c2ccc(-c3ccc(N4C[C@H](CO)OC4=O)cc3F)cn2)n1 [Tedizolid]
fitness
Conditions | first compound 0.125 µg/mL | first compound 0.25 µg/mL | first compound 0.5 µg/mL
S. aureus DSM 20231 [1], partner 0.0625 µg/mL | 0.887 | 0.765 | –
S. aureus DSM 20231 [1], partner 0.125 µg/mL | 0.7 | 0.667 | 0.294
S. aureus DSM 20231 [1], partner 0.25 µg/mL | 0.165 | 0.231 | 0.0821
S. aureus Newman [2], partner 0.0625 µg/mL | 0.867 | 0.818 | –
S. aureus Newman [2], partner 0.125 µg/mL | 0.744 | 0.644 | –

Conditions | Bliss interaction score
B. subtilis 168 | -0.0935
S. aureus DSM 20231 [4] | -0.0615
S. aureus Newman [5] | -0.14
S. pneumoniae D39V [6] | 0.0648

Cc1cc(NS(=O)(=O)c2ccc(N)cc2)no1 [Sulfamethoxazol] + Cn1nnc(-c2ccc(-c3ccc(N4C[C@H](CO)OC4=O)cc3F)cn2)n1 [Tedizolid]
fitness
Conditions | first compound 1 µg/mL | first compound 2 µg/mL | first compound 4 µg/mL
S. aureus DSM 20231 [1], partner 0.0625 µg/mL | 0.919 | 0.922 | 0.883
S. aureus DSM 20231 [1], partner 0.125 µg/mL | 0.586 | 0.626 | 0.565
S. aureus DSM 20231 [1], partner 0.25 µg/mL | 0.213 | 0.232 | 0.223
S. aureus Newman [2], partner 0.0625 µg/mL | 0.975 | 0.958 | 0.965
S. aureus Newman [2], partner 0.125 µg/mL | 0.901 | 0.94 | 0.934
S. aureus Newman [2], partner 0.25 µg/mL | 0.576 | – | –
S. pneumoniae D39V [3], partner 0.03125 µg/mL | 0.942 | 0.945 | 0.964
S. pneumoniae D39V [3], partner 0.0625 µg/mL | 0.933 | 0.944 | 0.914
S. pneumoniae D39V [3], partner 0.125 µg/mL | 0.754 | 0.781 | 0.777

fitness, one replicate
Conditions | partner 0.0625 µg/mL | partner 0.125 µg/mL | partner 0.25 µg/mL | partner 0.5 µg/mL
S. aureus Newman [2], first compound 8 µg/mL | 0.867 | 0.873 | 0.687 | –
S. pneumoniae D39V [3], first compound 1 µg/mL | – | – | 0.48 | 0.549
S. pneumoniae D39V [3], first compound 2 µg/mL | – | – | 0.529 | 0.548
S. pneumoniae D39V [3], first compound 4 µg/mL | – | – | 0.558 | 0.505

Conditions | Bliss interaction score
B. subtilis 168 | -0.056
S. aureus DSM 20231 [4] | 0.0501
S. aureus Newman [5] | 0.0706
S. pneumoniae D39V [6] | -0.103
